Experimental data: EPA's ToxRefDB 2

Legend:
dog [1] = details: Sub-acute repeat dose toxicity, beagle, Oral, Gavage/Intubation, dose end: 5 day, group: systemic
rat [2] = details: Fertility (Segment I), sprague dawley, Oral, Gavage/Intubation, dose end: 1 generation
rat [3] = details: Fertility (Segment I), sprague dawley, Oral, Gavage/Intubation, dose end: 1 generation, group: parental
dog [4] = details: Subchronic oral toxicity in nonrodent, beagle, Gavage/Intubation, dose end: 90 day, group: systemic, systemic / in life observation / clinical signs / emesis + systemic / in life observation / clinical signs / erythema + systemic / in life …
rat [5] = details: Prenatal developmental toxicity study; sprague dawley; Oral; Gavage/Intubation; dose end: 18 GD; group: maternal; systemic / in life observation / body weight / body weight + systemic / in life observation / body weight / body weight gain + systemic / in…
rat [6] = details: Subchronic oral toxicity in rodents, sprague dawley, Gavage/Intubation, dose end: 90 day, group: systemic
rabbit [7] = details: Prenatal developmental toxicity study, new zealand white, Oral, Gavage/Intubation, dose end: 19 GD, group: maternal
dog [8] = details: Sub-acute repeat dose toxicity, beagle, Oral, Gavage/Intubation, dose end: 15 day, group: systemic
rat [9] = details: Sub-acute repeat dose toxicity, sprague dawley, Oral, Gavage/Intubation, dose end: 21 day, group: systemic
rabbit [10] = details: Sub-acute repeat dose toxicity, new zealand white, Oral, Gavage/Intubation, dose end: 5 day, group: systemic
rat [11] = details: Subchronic oral toxicity in rodents, fischer, Feed, dose end: 13 week, group: systemic
mouse = details: Subchronic oral toxicity in rodents, b6c3f1, Feed, dose end: 13 week, group: systemic, systemic / organ weight / liver / absolute + systemic / organ weight / liver / relative to body weight + systemic / pathology microscopic / …
rat [12] = details: Prenatal developmental toxicity study, fischer, Oral, Gavage/Intubation, dose end: 15 GD
rabbit [13] = details: Prenatal developmental toxicity study, new zealand white, Oral, Gavage/Intubation, dose end: 18 GD, group: maternal
rat [14] = details: Prenatal developmental toxicity study, wistar, Oral, Water, dose end: 19 GD
rat [15] = details: Multigenerational reproductive toxicity study, wistar, Oral, Water, dose end: 1 generation
rabbit [16] = details: Prenatal developmental toxicity study, Oral, Gavage/Intubation, dose end: 19 GD
rat [17] = details: Sub-acute repeat dose toxicity, sprague dawley, Oral, Gavage/Intubation, dose end: 36 day, group: systemic
[18] = systemic / in life observation / body weight / body weight + systemic / in life observation / clinical signs / emesis + systemic / in life …
[19] = systemic / in life observation / clinical signs / salivation + systemic / in life observation / clinical signs / emesis
[20] = group: maternal, reproductive / reproductive performance / estrous cycle / length
[21] = group: parental, systemic / in life observation / body weight / body weight + systemic / in life observation / clinical signs / [other] + systemic / in life …
[22] = group: parental, systemic / in life observation / clinical signs / altered breathing rate + systemic / in life observation / clinical signs / compulsive …
[23] = systemic / in life observation / body weight / body weight + systemic / in life observation / clinical signs / altered breathing rate + …
[24] = systemic / clinical chemistry / [other] / [other] + systemic / clinical chemistry / aspartate aminotransferase (ast/sgot) / aspartate …
[25] = systemic / organ weight / liver / absolute + systemic / in life observation / clinical signs / salivation
[26] = systemic / in life observation / clinical signs / dialated pupils + systemic / in life observation / food consumption / food consumption
[27] = systemic / clinical chemistry / alanine aminotransferase (alt/sgpt) / alanine aminotransferase (alt/sgpt) + systemic / hematology / platelet…
[28] = systemic / in life observation / body weight / body weight + systemic / clinical chemistry / alanine aminotransferase (alt/sgpt) / alanine …
[29] = systemic / clinical chemistry / alanine aminotransferase (alt/sgpt) / alanine aminotransferase (alt/sgpt) + systemic / clinical chemistry / …
[30] = systemic / organ weight / liver / relative to body weight
[31] = systemic / in life observation / body weight / body weight gain + systemic / in life observation / clinical signs / [other] + systemic / in …
[32] = systemic / in life observation / clinical signs / abnormal feces + systemic / in life observation / clinical signs / altered breathing rate
[33] = systemic / clinical chemistry / cholesterol / cholesterol
[34] = group: developmental, developmental / developmental malformation / bone / delayed ossification
[35] = group: developmental, developmental / developmental malformation / bone / delayed ossification + developmental / developmental malformation / bone / supernumerary…
[36] = group: maternal, systemic / in life observation / clinical signs / ocular discharge + systemic / in life observation / clinical signs / red or crusty …
[37] = reproductive / reproductive performance / aborted / aborted + systemic / in life observation / mortality / mortality
[38] = group: developmental, developmental / developmental malformation / bone / incomplete ossification + developmental / developmental malformation / bone / wavy
[39] = group: maternal, reproductive / reproductive performance / pregnancy / pregnancy + systemic / in life observation / body weight / body weight + systemic / in…
[40] = group: offspring, developmental / developmental landmark / eye opening / eye opening + developmental / developmental landmark / incisor eruption / incisor …
[41] = group: offspring, developmental / developmental malformation / bone / kinked
[42] = group: parental, systemic / in life observation / body weight / body weight + systemic / in life observation / body weight / body weight gain + systemic / in…
[43] = group: reproductive, reproductive / reproductive performance / implantations / implantations + reproductive / reproductive performance / resorptions / …
[44] = group: developmental, systemic / in life observation / body weight / fetal weight
[45] = group: maternal, systemic / in life observation / body weight / body weight + systemic / in life observation / food consumption / food consumption + systemic…
[46] = systemic / in life observation / body weight / body weight gain + systemic / in life observation / body weight / offspring (pup) weight + …

CNCc1cc(F)ccc1Oc1ccc(Cl)c(Cl)c1
LOAEL (dog [1]; [18]): > 10 mg/kg/day | NOAEL (dog [1]; [18]): ≥ 10 mg/kg/day | LEL (dog [1]; [19]): 3 mg/kg/day | NEL (dog [1]; [19]): < 3 mg/kg/day | LEL (rat [2]; [20]): 30 mg/kg/day | LOAEL (rat [2]; [20]): > 60 mg/kg/day | NEL (rat [2]; [20]): 10 mg/kg/day | NOAEL (rat [2]; [20]): ≥ 60 mg/kg/day | LOAEL (rat [2]; [21]): > 60 mg/kg/day | NOAEL (rat [2]; [21]): ≥ 60 mg/kg/day | LEL (rat [2]; [22]): 10 mg/kg/day | NEL (rat [2]; [22]): < 10 mg/kg/day | LOAEL (rat [3]; [23]): > 100 mg/kg/day | NEL (rat [3]; [23]): 10 mg/kg/day | NOAEL (rat [3]; [23]): ≥ 100 mg/kg/day | LEL (rat [3]; systemic / in life observation / clinical signs / salivation + systemic / in life observation / food consumption / food consumption): 30 mg/kg/day | LEL (dog [4]): 2 mg/kg/day | LOAEL (dog [4]): > 30 mg/kg/day | NEL (dog [4]): < 2 mg/kg/day | NOAEL (dog [4]): ≥ 30 mg/kg/day | LEL (rat [5]): 25 mg/kg/day | LOAEL (rat [5]): > 50 mg/kg/day | NOAEL (rat [5]): ≥ 50 mg/kg/day | LOAEL (rat [6]; [24]): > 150 mg/kg/day | NOAEL (rat [6]; [24]): ≥ 150 mg/kg/day | LEL (rat [6]; [25]): 10 mg/kg/day | NEL (rat [6]; [25]): < 10 mg/kg/day | LEL (rabbit [7]; systemic / in life observation / clinical signs / dialated pupils): 10 mg/kg/day | LOAEL (rabbit [7]; [26]): > 30 mg/kg/day | NOAEL (rabbit [7]; [26]): ≥ 30 mg/kg/day | LOAEL (dog [8]; [27]): > 60 mg/kg/day | NOAEL (dog [8]; [27]): ≥ 60 mg/kg/day | LEL (dog [8]; [28]): 3 mg/kg/day | NEL (dog [8]; [28]): < 3 mg/kg/day | LOAEL (rat [9]; [29]): > 300 mg/kg/day | NOAEL (rat [9]; [29]): ≥ 300 mg/kg/day | LEL (rat [9]; [30]): 10 mg/kg/day | NEL (rat [9]; [30]): < 10 mg/kg/day | LOAEL (rabbit [10]; [31]): > 100 mg/kg/day | NOAEL (rabbit [10]; [31]): ≥ 100 mg/kg/day | LEL (rabbit [10]; [32]): 10 mg/kg/day | NEL (rabbit [10]; [32]): < 10 mg/kg/day

CCCCC(CC)C(=O)O (stereo not given) [2-Ethylhexanoic acid]
LEL (rat [11]; [33]): 61 mg/kg/day | NEL (rat [11]; [33]): < 61 mg/kg/day | LOAEL (rat [11]; systemic / organ weight / liver / relative to body weight + systemic / pathology microscopic / liver / hypertrophy): 303 mg/kg/day | NOAEL (rat [11]; systemic / organ weight / liver / relative to body weight + systemic / pathology microscopic / liver / hypertrophy + systemic / clinical …): 61 mg/kg/day | LEL (mouse): 885 mg/kg/day | LOAEL (mouse): 885 mg/kg/day | NEL (mouse): 180 mg/kg/day | NOAEL (mouse): 180 mg/kg/day | LEL (rat [12]; [34]): 250 mg/kg/day | LOAEL (rat [12]; [34]): 250 mg/kg/day | NEL (rat [12]; [35]): 100 mg/kg/day | NOAEL (rat [12]; [35]): 100 mg/kg/day | NEL (rat [12]; group: maternal, reproductive / reproductive performance / postimplantation loss / postimplantation loss + reproductive / reproductive performance / …): 250 mg/kg/day | LEL (rat [12]; [36]): 500 mg/kg/day | LOAEL (rat [12]; [36]): 500 mg/kg/day | NOAEL (rat [12]; [36]): 250 mg/kg/day | LEL (rabbit [13]; [37]): 125 mg/kg/day | LOAEL (rabbit [13]; [37]): 125 mg/kg/day | NOAEL (rabbit [13]; reproductive / reproductive performance / aborted / aborted + systemic / in life observation / mortality / mortality + systemic / in life …): 25 mg/kg/day | LEL (rat [14]; [38]): 100 mg/kg/day | LOAEL (rat [14]; [38]): 100 mg/kg/day | NEL (rat [14]; [38]): < 100 mg/kg/day | NOAEL (rat [14]; [38]): < 100 mg/kg/day | LEL (rat [14]; group: maternal, reproductive / reproductive performance / pregnancy / pregnancy): 300 mg/kg/day | LOAEL (rat [14]; [39]): > 600 mg/kg/day | NEL (rat [14]; [39]): 100 mg/kg/day | NOAEL (rat [14]; [39]): ≥ 600 mg/kg/day | LOAEL (rat [15]; [40]): > 600 mg/kg/day | NOAEL (rat [15]; [40]): ≥ 600 mg/kg/day | LEL (rat [15]; [41]): 100 mg/kg/day | NEL (rat [15]; [41]): < 100 mg/kg/day | LOAEL (rat [15]; [42]): > 600 mg/kg/day | NEL (rat [15]; [42]): 100 mg/kg/day | NOAEL (rat [15]; [42]): ≥ 600 mg/kg/day | LEL (rat [15]; group: parental, systemic / pathology microscopic / uterus / dilatation + systemic / pathology microscopic / vagina / hyperplasia + systemic / pathology …): 300 mg/kg/day | LEL (rat [15]; [43]): 600 mg/kg/day | LOAEL (rat [15]; [43]): > 600 mg/kg/day | NOAEL (rat [15]; [43]): ≥ 600 mg/kg/day

COCCOC[C@H](CC1(C(=O)NC2CCC(C(=O)O)CC2)CCCC1)C(=O)Oc1ccc2c(c1)CCC2 (stereo not given in full) [Candoxatril]
LEL (rabbit [16]; [44]): 1000 mg/kg/day | LOAEL (rabbit [16]; [44]): > 1000 mg/kg/day | NOAEL (rabbit [16]; [44]): ≥ 1000 mg/kg/day | LEL (rabbit [16]; [45]): 1000 mg/kg/day | LOAEL (rabbit [16]; [45]): > 1000 mg/kg/day | NEL (rabbit [16]; [45]): 250 mg/kg/day | NOAEL (rabbit [16]; [45]): ≥ 1000 mg/kg/day | LOAEL (rat [17]; [46]): > 1200 mg/kg/day | NOAEL (rat [17]; [46]): ≥ 1200 mg/kg/day | NEL (rat [17]; systemic / in life observation / clinical signs / hyperactivity): < 120 mg/kg/day
